Source: paper PMC4666032, “KPT-330, a potent and selective exportin-1 (XPO-1) inhibitor, shows antitumor effects modulating the expression of cyclin D1 and survivin in prostate cancer models” (BMC Cancer, 2015)

Experiments:
Experiment in all cases: Growth/viability assay, IC50 at 72 h
Type in all cases: cell-based
PC3M-pro4 = details: Homo sapiens; PC3M-pro4, Fig. 2g
Source text: (§1) Four commercial (LnCaP, 22rv1, DU145 and PC3) and twelve non-commercial (LAPC-4 [44], CWR22, PCb2 [45], PC3Lymphnode, PC3M, PC3M-pro4 [46] and PC3M-Ln4 [47], LnCaP-104S [47], LnCaP104R1 [47], LnCaP-C81 [47], C4-2B [48], VCAP [49] and DuCaP [[49]) cell lines were selected for the in vitro experimental studies for their biological characteristics: LAPC-4 (Androgen receptor [AR] positive, androgen dependent with low Akt/mTOR activities, p53 wt); LnCaP (AR positive, androgen dependent with high Akt/mTOR activities, p53 wt); LnCaP-C81 and LnCaP-C4-2B (AR positive, androgen independent with high Akt/mTOR activities, p53 wt); 22rv1 (AR positive, androgen independent with low Akt/mTOR activities, p53 wt); PC3 (AR negative, with high Akt/mTOR activities and no p53 function (p53 del) and DU145 (AR negative, with low Akt/mTOR activities and mutant p53). PC3 and DU145 have been also transfected with AR to obtain PC3AR [50] and DU-AR [51]. Benign prostatic hyperplasia line (BPH1), and Prostatic epithelial lines (EPN and RWPE-1) were used as non-neoplastic controls. Cells were routinely cultured in appropriate medium supplemented with 10 % fetal bovine serum (FBS), 1 % pen-strep and 1 % L-glutamine (Invitrogen Corporation, Carlsbad, CA). To minimize the risk to work with misidentified and/or contaminated cell lines, DNA profiling was periodically carried out in-house to authenticate cell cultures. DNA was isolated from cell lines using a standard DNA isolation kit. STR profiling was performed by using GenePrint® 10 System (Promega Corporation, Madison, WI). An eight-capillary 3500 Genetic Analyzer (Applied Biosystems Life Technologies Europe BV, Monza, Italy) was used to separate and identify alleles using standard procedures. GenePrint® 10 System allows co-amplification and detection of […] human loci required by the guidelines ASN-0002. For non-commercial cell lines, the authentication process was carried out by comparing STR-fingerprints with those published by Adri van Bokhoven and co-workers. In addition, cell lines were stocked at very low passages and used at <15-20 subcultures.
(§2) Cells were seeded at a density of 2 x 10^4 cells/mL in 24-well plates. Cells were left to attach and grow in 5 % FCS DMEM for 24 h. After this time, cells were maintained in the appropriate culture conditions. Morphological controls were performed every day with an inverted phase-contrast photomicroscope (Nikon Diaphot, Tokyo, Japan) before cell trypsinization and counting. Cells were trypsinized and resuspended in 1.0 ml of saline, then counted using a NucleoCounter™ NC-100 (automated cell counter systems, Chemotec, Gydevang, Denmark). The effect on cell proliferation was measured by taking the mean cell number with respect to controls over time for the different treatment groups.
(§3) Viable cells were counted by using the NucleoCounter™ NC-100 (automated cell counter systems, Chemotec, Cydevang, DK). Apoptosis was evaluated by using Tali® Apoptosis Kit - Annexin V Alexa Fluor® 488 & Propidium Iodide-based, (Life Technologies Italia, Monza, Italy). Stained cells were then measured on a Tali® Image-Based Cytometer. Apoptosis was further confirmed by FACS analysis following the instructions of the manufacturer.
(§4) Six SINE analogs KPT-127, KPT-185, KPT-205, KPT-227, KPT251 and KPT-330 sharing a trifluoromethyl phenyl triazole scaffold, were investigated for their growth inhibitory and apoptotic potential in our PCa cell panel. Therefore, the effects of these XPO1 inhibitors were evaluated on the growth of PCa cell lines performing dose- and time-dependent studies. To examine the dose-dependent effects of these compounds, we treated cells with varying doses of the compounds (0, 1, 10, 50, 100, 500 and 1000 nM) and assessed viability at 72 hours after treatment. The IC50 for each compound was then calculated. […]

CWR22 = details: Homo sapiens; CWR22, Fig. 2g
Source text: as §1, §2, §3, §4

PCb2 = details: Homo sapiens; PCb2, Fig. 2g
Source text: as §1, §2, §3, §4

DU145 = details: Homo sapiens, DU-145; DU145, Fig. 2g
Source text: as §1, §2, §3, §4

PC3AR = details: Homo sapiens, PC3/AR, Fig. 2g
Source text: as §1, §2, §3, §4

LAPC-4 = details: Homo sapiens
Source text: as §1, §2, §3, §4

PC3M-Ln4 = details: Homo sapiens; PC3M-Ln4, Fig. 2g
Source text: as §1, §2, §3, §4

PC3 = details: Homo sapiens, PC-3
Source text: as §1, §2, §3, §4

DuCaP = details: Homo sapiens, Fig. 2g
Source text: as §1, §2, §3, §4

C4-2B = details: Homo sapiens, Fig. 2g
Source text: as §1, §2, §3, §4

LnCaP-C81 = details: Homo sapiens; C-81, Fig. 2g
Source text: as §1, §2, §3, §4

LnCaP-104S = details: Homo sapiens, Fig. 2g
Source text: as §1, §2, §3, §4

LnCaP = details: Homo sapiens
Source text: as §1, §2, §3, §4

RWPE-1 = details: Homo sapiens; RWPE-1, Fig. 2g
Source text: as §1, §2, §3, §4

LnCaP104R1 = details: Homo sapiens; 104R1, Fig. 2g
Source text: as §1, §2, §3, §4

22rv1 = details: Homo sapiens
Source text: as §1, §2, §3, §4

DU-AR = details: Homo sapiens, Fig. 2g
Source text: as §1, §2, §3, §4

BPH-1 = details: Homo sapiens
Source text: as §1, §2, §3, §4

EPN = details: Homo sapiens, Fig. 2g
Source text: as §1, §2, §3, §4

VCaP = details: Homo sapiens, Fig. 2g
Source text: as §1, §2, §3, §4

Structure (SMILES)	IC50 (PC3M-pro4)	IC50 (CWR22)	IC50 (PCb2)	IC50 (DU145)	IC50 (PC3AR)	IC50 (LAPC-4; LAPC4, LAPC-4, Fig. 2g)	IC50 (LAPC-4; LAPC4, 72 hours, Fig. 2a-f)	IC50 (PC3M-Ln4)	IC50 (PC3; PC3, 72 hours, Fig. 2a-f)	IC50 (PC3; PC3, Fig. 2g)	IC50 (DuCaP)	IC50 (C4-2B)	IC50 (LnCaP-C81)	IC50 (LnCaP-104S)	IC50 (LnCaP; 72 hours, Fig. 2a-f)	IC50 (LnCaP; Fig. 2g)	IC50 (RWPE-1)	IC50 (LnCaP104R1)	IC50 (22rv1; 22rv1, 72 hours, Fig. 2a-f)	IC50 (22rv1; 22rv1, Fig. 2g)	also measured
CC(C)OC(=O)/C=C\n1cnc(-c2cc(OC(C)C)cc(C(F)(F)F)c2)n1 [KPT-207]	0.125 µM	0.133 µM	0.067 µM	0.09 µM	0.08 µM	0.115 µM	0.101 ± 0.001 µM	0.06 µM	0.074 ± 0.005 µM	0.074 µM	0.12 µM	0.144 µM	0.16 µM	0.08 µM	0.113 ± 0.012 µM	0.301 µM	0.82 µM	0.1 µM	0.078 ± 0.019 µM	0.078 µM	IC50 (DU-AR): 0.065 µM; IC50 (BPH-1; BPH-1, BPH1, Fig. 2g): > 1 µM; IC50 (BPH-1; BPH-1, 72 hours, Fig. 2a-f): > 1 µM; IC50 (EPN): 0.75 µM; IC50 (VCaP): 0.13 µM
COc1cc(-c2ncn(/C=C\c3nnco3)n2)cc(C(F)(F)F)c1 [KPT-225]	0.18 µM	0.18 µM	0.16 µM	0.135 µM	0.144 µM	0.223 µM	0.223 ± 0.031 µM	0.08 µM	0.122 ± 0.005 µM	0.122 µM	0.18 µM	0.17 µM	0.18 µM	0.12 µM	0.171 ± 0.03 µM	0.171 µM	1 µM	0.16 µM	0.204 ± 0.044 µM	0.204 µM	IC50 (DU-AR): 0.112 µM; IC50 (BPH-1; BPH-1, BPH1, Fig. 2g): > 1 µM; IC50 (BPH-1; BPH-1, 72 hours, Fig. 2a-f): > 1 µM; IC50 (EPN): 1 µM; IC50 (VCaP): 0.24 µM
